Consider 24 compounds from ChEMBL document CHEMBL3596159, “Beyond substrate analogues: new inhibitor chemotypes for glycosyltransferases” (Medchemcomm, 2014).

*1 amine or outer side, *2 acyl side, *3 side chain or, on linkers, in order; H or OH if unused. Where a SMILES comes first, the peptide text is derived from it. Bridges are numbered along the chain shown (N, C = ends). [ ]: non-standard residue; d: D form. The star is where a group is joined. Orn(4R-OH,5R-OH) = O=C([C@H](C[C@@H](O)[C@@H](O)N[*:3])N[*:1])[*:2]; Tetradecanoyl(10R,12S-Me2) = CC[C@H](C)C[C@H](C)CCCCCCCCC(=O)*; hTyr(3S-OH,4S-OH) = N[C@H](C(=O)O)[C@H](O)[C@@H](O)c1ccc(O)cc1; Gln(3R-OH) = NC(=O)C[C@@H](O)[C@H](N)C(=O)O; Pro(3S-OH) = O=C(O)[C@H]1NCC[C@@H]1O; Hyp = O=C(O)[C@@H]1C[C@@H](O)CN1

Assay [1] is described as follows: Inhibition of MraY (unknown origin).
Assay [2] has as its target T1, UDP-N-acetylglucosamine--N-acetylmuramyl-(pentapeptide) pyrophosphoryl-undecaprenol N-acetylglucosamine transferase (Escherichia coli (strain K12)) (UniProt P17443).
T1 sequence (whole entry): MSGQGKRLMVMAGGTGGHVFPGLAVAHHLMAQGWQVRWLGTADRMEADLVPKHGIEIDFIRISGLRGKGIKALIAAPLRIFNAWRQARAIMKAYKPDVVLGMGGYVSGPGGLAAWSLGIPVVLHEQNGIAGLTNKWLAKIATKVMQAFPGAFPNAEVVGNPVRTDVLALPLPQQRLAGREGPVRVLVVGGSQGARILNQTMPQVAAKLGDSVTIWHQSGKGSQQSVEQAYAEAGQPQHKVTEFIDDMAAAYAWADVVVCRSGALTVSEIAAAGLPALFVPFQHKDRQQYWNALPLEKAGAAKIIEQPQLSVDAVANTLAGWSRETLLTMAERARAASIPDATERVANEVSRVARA
In words: Inhibition of Escherichia coli MurG at 2.5 microg/ml.

Assay [3] has as its target T2, Ceramide glucosyltransferase (Homo sapiens) (UniProt Q16739).
T2 sequence (whole entry): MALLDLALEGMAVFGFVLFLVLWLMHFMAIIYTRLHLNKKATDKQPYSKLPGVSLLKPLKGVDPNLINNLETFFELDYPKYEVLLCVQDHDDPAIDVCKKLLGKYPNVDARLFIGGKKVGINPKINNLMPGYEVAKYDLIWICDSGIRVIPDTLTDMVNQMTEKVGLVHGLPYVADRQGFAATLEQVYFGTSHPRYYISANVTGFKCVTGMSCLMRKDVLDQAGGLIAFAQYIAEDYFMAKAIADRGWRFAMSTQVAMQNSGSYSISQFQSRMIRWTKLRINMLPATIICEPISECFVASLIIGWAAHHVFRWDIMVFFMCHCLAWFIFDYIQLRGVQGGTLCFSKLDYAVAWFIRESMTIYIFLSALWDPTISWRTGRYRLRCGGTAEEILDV
Nature of the assay: Inhibition of glucosylceramide synthase (unknown origin) at 5 uM.

In assay [4] the target is T3, Phospho-N-acetylmuramoyl-pentapeptide-transferase/UDP-N-acetylglucosamine--N-acetylmuramyl-(pentapeptide) pyrophosphoryl-undecaprenol N-acetylglucosamine transf (Escherichia coli K-12, UniProt P0A6W3+P17443).
T3 sequence (P0A6W3 whole entry): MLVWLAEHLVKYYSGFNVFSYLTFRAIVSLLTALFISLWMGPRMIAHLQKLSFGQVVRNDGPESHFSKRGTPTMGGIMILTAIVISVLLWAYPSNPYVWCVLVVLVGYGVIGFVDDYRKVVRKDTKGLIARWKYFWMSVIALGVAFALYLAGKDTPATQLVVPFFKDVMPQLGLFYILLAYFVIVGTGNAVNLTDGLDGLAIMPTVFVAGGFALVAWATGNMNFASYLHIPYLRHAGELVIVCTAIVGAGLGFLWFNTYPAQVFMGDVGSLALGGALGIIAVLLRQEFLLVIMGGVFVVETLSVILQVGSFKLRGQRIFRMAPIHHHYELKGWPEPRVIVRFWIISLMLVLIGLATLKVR
T3 sequence (P17443 whole entry): T1 sequence (whole entry)
In words: Inhibition of Escherichia coli MraY/MurG. In kind it is protein assay.

The target of assay [5] is T4, CMP-N-acetylneuraminate-beta-galactosamide-alpha-2,3-sialyltransferase 1 (Homo sapiens, UniProt Q11201).
T4 sequence (Q11201 whole entry): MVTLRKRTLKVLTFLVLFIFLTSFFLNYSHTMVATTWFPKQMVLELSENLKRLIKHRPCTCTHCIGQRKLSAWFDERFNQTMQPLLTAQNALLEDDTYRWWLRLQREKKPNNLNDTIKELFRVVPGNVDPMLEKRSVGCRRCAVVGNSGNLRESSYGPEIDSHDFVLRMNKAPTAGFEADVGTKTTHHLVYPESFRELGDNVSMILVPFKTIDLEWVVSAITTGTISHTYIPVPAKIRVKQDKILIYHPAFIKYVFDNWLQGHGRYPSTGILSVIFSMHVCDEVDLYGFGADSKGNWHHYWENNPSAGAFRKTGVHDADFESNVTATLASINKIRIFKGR
Nature of the assay: Inhibition of ST3Gal 1 (unknown origin).

Assay [6] in a line: Inhibition of candida albicans beta-(1,3)-glucan synthase assessed as decrease in transfer of radiolabelled glucose from UDP-[3H]-glucose onto acceptor.

In assay [1], `NC[C@H]1O[C@@H](O[C@H](c2cn(CCCCCCCCCCOc3ccc(C(=O)c4ccccc4)cc3)nn2)[C@H]2O[C@@H](n3ccc(=O)[nH]c3=O)[C@H](O)[C@@H]2O)[C@H](O)[C@@H]1O` showed a 50% inhibitory concentration (IC50) of 125 µM.

`O=C1N/C(=N/c2ccccc2)S/C1=C/c1cc(Br)cc(Cl)c1O`: the inhibition in assay [2] was 71%.

The compound `CCCCCCCCCCCCC/C=C/[C@@H](O)[C@H](CN1CCOCC1)NC(=O)CCCCCCCCCCCCCCC` registered an inhibition in assay [3] of 5%.

As to `COc1cc(/C=C2\C(=O)NC(=O)N(c3ccc(C)cc3)C2=O)cc([N+](=O)[O-])c1O`, the inhibition in assay [2] was 72%.

In turn, `COc1c(N/C=C2\C(=O)N(c3ccccc3C)N=C2C)cc([N+](=O)[O-])cc1[N+](=O)[O-]` had an inhibition in assay [2] of 66%.

In the case of `CCOC(=O)c1ccccc1-c1c2cc(Br)c(=O)c(Br)c-2oc2c(Br)c(O)c(Br)cc12`, the IC50 in assay [4] came to 18.4 µM.

Consider `CCCCCCCCCCCCC/C=C/[C@@H](O)[C@@H](CN1CCOCC1)NC(=O)CCCCCCCCCCCCCCC`, for which the inhibition in assay [3] stood at 73%.

As to `CCCCCCCCCCCCC/C=C/[C@@H](O)[C@@H](CN1CCCC1)NC(=O)CCCCCCCCCCCCCCC`, the inhibition in assay [3] amounted to 87%.

For `CCCCCCCCCCCCCCCC(=O)N[C@H](CN1CCCC1)[C@H](O)c1ccccc1`, the inhibition in assay [3] was determined as 50%.

On to `C[C@H](CCC(=O)O)[C@H]1CC[C@H]2[C@@H]3CC[C@@H]4C[C@H](O)CC[C@]4(C)[C@H]3CC[C@]12C` [LITHOCHOLIC ACID], for which the IC50 in assay [5] is 21 µM.

In assay [2], `CC1=NN(c2ccc(Cl)c(C(=O)O)c2)C(=O)/C1=C\c1ccc(-c2ccccc2C(=O)O)o1` showed an inhibition of 48%.

The compound `COc1cc(/C=C2\C(=O)N(c3ccc(Cl)c(C(=O)O)c3)N=C2C)cc([N+](=O)[O-])c1O` displayed an inhibition in assay [2] of 54%.

In assay [2], `O=C(CN1C(=O)S/C(=C/c2ccc(Cl)cc2)C1=O)Nc1cc([N+](=O)[O-])ccc1O` yielded an inhibition of 72%.

For `CCCCCCCCCCCCC/C=C/[C@H](O)[C@@H](CN1CCOCC1)NC(=O)CCCCCCCCCCCCCCC`, in assay [3], the inhibition was determined as 5%.

With `CCCCCCCCCC(=O)N[C@H](CN1CCOCC1)[C@H](O)c1ccccc1`, the inhibition in assay [3] worked out at 16%.

Turning to `CC[C@H](C)C[C@H](C)CCCCCCCCC(=O)N[C@H]1C[C@@H](O)[C@@H](OCCN)NC(=O)[C@@H]2[C@@H](O)CCN2C(=O)[C@H]([C@H](O)CCN)NC(=O)[C@H]([C@H](O)[C@@H](O)c2ccc(O)cc2)NC(=O)[C@@H]2C[C@@H](O)CN2C(=O)[C@H]([C@@H](C)O)NC1=O`, the IC50 in assay [6] worked out at 0.001 µM.

As to `CCCCCCCCCCCCCCCC(=O)N[C@H](CN1CCOCC1)[C@H](O)c1ccccc1`, the inhibition in assay [3] was determined as 32%.

`C[C@H](CCCn1cc(CCCC(=O)O)nn1)[C@H]1CC[C@H]2[C@@H]3CC[C@@H]4C[C@H](O)CC[C@]4(C)[C@H]3CC[C@]12C`: in assay [5], the IC50 turned out to be 5 µM and the Ki was 2.2 µM.

Turning to `NS(=O)(=O)c1ccc(-c2ccc(/C=C3\C(=O)N(c4cccc(S(N)(=O)=O)c4)N=C3C(F)(F)F)o2)cc1`, the inhibition in assay [2] is 66%.

In assay [3], `CCCCCCCCCCCCC/C=C/[C@H](O)[C@H](CN1CCOCC1)NC(=O)CCCCCCCCCCCCCCC` gave an inhibition of 5%.

In turn, `O=C1OC2(c3cc(I)c(O)cc3Oc3cc(O)c(I)cc32)c2ccccc21` showed an IC50 in assay [4] of 166 µM.

Compound `Cc1cc(/C=C2\C(=O)NC(=S)N(c3ccc(Cl)cc3)C2=O)c(C)n1-c1cc(C(=O)O)cc(C(=O)O)c1` came in with an inhibition in assay [2] of 88%.

Regarding `COC1=C(O)c2c(O)cc(C)c3c(O)cc(O)c(c23)C1=O`, the IC50 in assay [4] was 54 µM.

For `CC[C@H](C)C[C@H](C)CCCCCCCCC(=O)N[C@H]1C[C@@H](O)[C@@H](O)NC(=O)[C@@H]2[C@@H](O)CCN2C(=O)[C@H]([C@H](O)CC(N)=O)NC(=O)[C@H]([C@H](O)[C@@H](O)c2ccc(O)cc2)NC(=O)[C@@H]2C[C@@H](O)CN2C(=O)[C@H]([C@@H](C)O)NC1=O` ({Tetradecanoyl(10R,12S-Me2)}-[Orn(4R-OH,5R-OH)]T[Hyp][hTyr(3S-OH,4S-OH)][Gln(3R-OH)][Pro(3S-OH)]; lactam 1-C), the 50% inhibitory concentration (IC50) in assay [6] came out at 0.07 µM.
